Reference: patent EP4548907A1 (SkyLab AG, priority 2023, dated 2025)
Where “and” joins values, the source holds several entries; their conditions need not be identical. Equal entries are not always repeated.

Key:
Design in all cases: species or system bovine
[1] = Experiment 3: surface microhardness recovery of demineralised enamel, aspartic acid combined with different calcium sources; conditions: single treatment 16 hours at 37°C, solutions pH 6 to 6.5 (excluding controls), n=10
Method: Enamel blocks were sectioned from bovine teeth, lapped plane-parallel, and highly polished. The baseline surface microhardness of the enamel samples was measured. The samples were then stratified between the treatment groups based on the baseline surface microhardness values.
(§1) The enamel samples were artificially demineralised by immersing them in a demineralisation solution for 60 minutes. Following demineralisation, the surface microhardness of the enamel samples was remeasured.
(§2) The enamel samples in each treatment group were treated with the assigned test products for 16 hours. Following treatment, the surface microhardness of each treated enamel sample was remeasured.
(§3) The percentage of surface microhardness recovery (%SMHR) achieved by the test products was calculated and used to compare the ability of the test products to repair the demineralised enamel samples.
The pH of each solution was adjusted into the pH range of pH 6 to 6.5, using sodium hydroxide or dilute hydrochloric acid (Excluding the positive and negative control). All pH measurements were taken with a calibrated pH electrode (Serial Number: VT1 8048) and an Accumet XI,250 ion meter (Asset Number: UK01200-LAB-15-002).
Approximately 130 enamel blocks (Measuring 4mm x 4mm) were sectioned from bovine incisors and were lapped plano-parallel (both sides) using a Logitech PM5 lapping machine (Asset number: 4F008).
(§4) The enamel surfaces of the samples were machine-polished with 1 micron and 0.3 micron aluminium oxide slurries, using a MetPrep Saphir 550 Polisher (Asset Number: UK01200-1010015-114).
(§5) The surface microhardness of each block was measured at the following time points: • At baseline. • After the demineralisation treatment. • After overnight treatment.
(§6) The surface microhardness of the enamel samples was measured using a Buehler MicroMet 5103 (Asset Number: 4F101) and OmniMet MHT software.
(§7) The Intertek CRS method for measuring the surface microhardness of the samples at each time point has been provided below: • Five Knoop indents • 50 gram load force • 10 second dwell time • X50 objective
(§8) A demineralisation solution was prepared that contained: • ▪ 50 mM Acetic acid • ▪ 2.2 mM Calcium nitrate • ▪ 2.2 mM Potassium phosphate monobasic • ▪ 0.1 ppm Sodium fluoride
The pH of the solution was adjusted to pH 4.5. All pH measurements were taken with a calibrated pH electrode (Serial Number: VT1 8048) and an Accumet XI,250 ion meter (Asset Number: UK01200-LAB-15-002.
The enamel blocks were demineralised by placing the samples into a Sterilin containing 8mL of demineralisation solution per sample. All demineralisation exposures were performed for 60 minutes, in an oven set to 37°C for 60 minutes.
The enamel samples were placed into their assigned test solutions for 16 hours at 37°C, whilst being agitated with a magnetic stirrer. Aquasil Putty was used to attach the 10 enamel blocks in each treatment group to a sample holder with the enamel surfaces of the samples exposed.
Following the removal of the samples from the test product, each enamel block was rinsed with deionised water for 1-2 minutes and sonicated for 10 minutes to remove any loose debris. The enamel samples were then returned to their original containers.
The ability of the test formulations to repair the demineralised enamel samples after a single treatment was assessed by calculating the percentage of surface microhardness recovery values (%SMHR) achieved by each test product.
The formula for calculating the %SMHR values achieved by each treatment is shown below: % SMRH = 100∗[(SMHPost-treatment−SMHPost-demineralisation)/(SMH; Baseline−SMH Post-demineralisation)] [formula]

[2] = Summary of 3 experiments in comparison with negative and positive controls; conditions: Water (Negative control) 0 units; for Comparison: units better than negative control / Comparison: units better than fluoride / Comparison: units worser than negative control: scale: Fluoride (Positive control) 100 units
From the text: Table 10. Summary of 3 experiments in comparison with negative and positive controls

[3] = Experiment 1: remineralization of demineralised enamel, surface microhardness (SMH) after single overnight treatment with calcium sources; conditions: single overnight immersion 16 hours, 37°C; for Mean (%SMR): percentage surface microhardness recovery
Method: This in vitro study was designed to compare the remineralization efficacy of the test products, following a single, overnight treatment application.
Bovine enamel blocks were sectioned, machine polished and flattened. The baseline surface microhardness of the enamel samples was measured with a Buehler MicroMet 5103 surface microhardness machine.
Each bovine enamel block was demineralised for 1 hour by immersing the sample at 37°C, in a demineralization solution described by Huang et. al. (2009)^1. Following demineralization, the surface microhardness of each enamel sample was remeasured.
All demineralized enamel samples were subjected to an overnight immersion in the assigned test product, with immersion solutions mixed and heated to 37°C during treatment. Following the overnight immersion, the surface microhardness of the enamel samples was remeasured. The study logistics were designed so that each enamel sample was demineralized and then immersed in the assigned treatment on the same day.
The ability of a single, overnight application of test products and controls to repair enamel lesions was assessed by comparing the percentage surface microhardness recoveries and the changes in surface microhardness for the treated samples.
One hundred and thirty enamel blocks, measuring 4 x 4 mm, were cut from bovine incisors and lapped planar-parallel using a Logitech PM5 lapping machine. The enamel surfaces of the samples were machine-polished using a MetPrep Saphir 550 to a final finish of 0.04 microns. One corner of each block was removed in order to ensure correct orientation on the SMH machine.
The baseline surface microhardness of the enamel samples was measured using a calibrated Buehler MicroMet 5103 microhardness indenter and Knoop diamond indenter tip.
The enamel samples were orientated with the abraded corner in the top right. Baseline surface microhardness indents were placed in the centre of the enamel samples. Five Knoop indents were placed in a vertical line at each timepoint (under a load of 50 g for 10 seconds). Surface imperfections were avoided, and outlying indents replaced.
A demineralization solution was prepared according to the following specifications: • ▪ 50 mM Acetic acid • ▪ 2.2 mM Calcium nitrate • ▪ 2.2 mM Potassium phosphate monobasic • ▪ 0.1 ppm Sodium fluoride • ▪ Final pH of the solution was adjusted to 4.5 with sodium hydroxide.
Enamel samples were mounted onto acetate squares using double-sided tape. Enamel samples were immersed in 8 ml demineralization solution per sample and placed into an oven for 1 hour (37 °C). […]
The post-demineralization surface microhardness of the enamel samples was measured using a calibrated Buehler MicroMet 5103 microhardness indenter and Knoop diamond indenter tip. […]

[4] = Experiment 2: surface microhardness recovery of demineralised enamel, aspartic acid with or without tricalcium phosphate; conditions: single treatment 16 hours at 37°C, solutions pH 6-6.5, n=10
Method: Enamel blocks were sectioned from bovine teeth, lapped plano-parallel and highly polished. The baseline surface microhardness of the enamel samples was then measured.
as §1, with “in” for “in a”, “remeasured. The samples were then stratified between the treatment groups based upon the baseline surface microhardness.” for “remeasured.”
as §2, §3
The pH of each solution was adjusted into the pH range shown in Table 2, using sodium hydroxide or dilute hydrochloric acid. All pH measurements were taken with a calibrated pH electrode (Serial Number: 13-620-631) and either an Accumet XI,250 ion meter (Asset Number: UK01200-LAB-15-002), or an Orion 720 ion meter (Asset Number: 4F064).
Approximately 90 enamel blocks (Measuring 4mm x 4mm) were sectioned from bovine incisors and were lapped plano-parallel (both sides) using a Logitech PM5 lapping machine (Asset number: 4F008).
as §4, §5, §6, §7, §8
The pH of the solution was adjusted to pH 4.5. All pH measurements were taken with a calibrated pH electrode (Serial Number: 13-620-631) and either an Accumet XI,250 ion meter (Asset Number: UK01200-LAB-15-002), or an Orion 720 ion meter (Asset Number: 4F064). […]
The ability of the test formulations to repair the demineralised enamel samples after a single treatment was assessed by calculating the percentage of surface microhardness recovery values (%SMHR) achieved by each test product. […]

SMILES: [F-].[Na+] [1450 ppm F, Sodium Fluoride, reference compound]
- Mean %SMHR Value [1]: 5.15%
- Comparison: units ([2]; position on the scale): 100 units
- Mean (%SMR) ([3]; n = 10): 35.5556%
- Mean (%SMR) ([3]; n = 10, listed as 1450 ppm Fluoride control): 36%
- Mean Change in SMH ([3]; post-treatment SMH minus demineralisation SMH (Knoop), n = 10): 25.12
- mean SMH increase ([3]; rounded values in the text): 25 HK units
- Mean %SMHR [4]: 14%
- Mean %SMHR ([4]; listed as 1450 ppm Fluoride (Positive control)): 14.12%

SMILES: N[C@@H](CC(=O)O)C(=O)O [Aspartic Acid 0.1 %, L-Aspartic Acid]
- Comparison: units better than negative control [2]: for 65 units better than negative control
- Mean %SMHR [4]: 3.19%

SMILES: N[C@@H](CC(=O)O)C(=O)O [Aspartic Acid 0.5 %, L-Aspartic Acid]
- Comparison: units better than negative control ([2]; listed as Aspartic acid 0,5% in distilled water): for 90 units better than negative control
- Mean %SMHR [4]: -37% and -37.32%

SMILES: N[C@@H](CC(=O)O)C(=O)O [Aspartic acid 0,1% in artifical saliva, Aspartic acid]
- Comparison: units better than fluoride [2]: for 2 units better than fluoride

SMILES: N[C@@H](CC(=O)O)C(=O)O [Aspartic acid 0,2% in artificial saliva, Aspartic acid]
- Mean %SMHR Value [1]: 16,21%
- Comparison: units better than fluoride ([2]; listed as Aspartic acid 0,2% in artifical saliva): for 25 units better than fluoride

SMILES: N[C@@H](CC(=O)O)C(=O)O [Aspartic acid 0.2 % in distilled water, Aspartic acid]
- Mean %SMHR Value [1]: -87.69%
- Mean %SMHR Value ([1]; listed as 0.2% Aspartic acid): -88%
- Comparison: units worser than negative control [2]: for 70 units worser than negative control

SMILES: N[C@@H](CC(=O)O)C(=O)O [Aspartic acid 0.4 %, Aspartic acid]
- Mean %SMHR Value [1]: -91.74%
- Mean %SMHR Value ([1]; listed as 0.4% Aspartic acid): -92%
- Comparison: units worser than negative control ([2]; listed as Aspartic acid 0,4% in distilled water): for 82 units worser than negative control

SMILES: N[C@@H](CC(=O)O)C(=O)O [Aspartic acid 0.05 %, Aspartic acid]
- Mean %SMHR Value [1]: -35.13%
- Comparison: units better than negative control ([2]; listed as 0,05% Aspartic acid): for 17 units better than negative control
